Results from PubChem BioAssay AID179 (DTP/NCI, 2004).
Several values for one entry are separate records, joined by “and”; a condition that tells them apart may be missing. Equal entries are not always repeated. Activity calls are given as the source filed them.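 How the source made its calls: active means compounds giving half or more protection of infected cells from virus-caused growth loss, again on retest; inactive means the rest.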

Test system: CEM cells HIV-1 protection, formazan growth assay
Test: NCI AIDS Antiviral Assay
Details: for IC50: measured here: growth of uninfected CEM cells
Procedure, shortened: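 Protection of CEM cells against HIV-1 was scored from cell growth (soluble formazan) across five concentrations, with parallel uninfected cells. Lack of protection may reflect toxicity.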

SMILES	EC50	IC50	outcome
CC(=O)N(CCc1ccccc1)C(C#N)c1ccccc1 (stereo not drawn)	> 200 µM	> 200 µM	–
O=C1C(CN2CCCC2)CCCC1CN1CCCC1 (stereo not drawn)	–	–	inactive
C=C1CN(S(=O)(=O)c2ccc(C)cc2)CCCN(Cc2ccncc2)CCCN(S(=O)(=O)c2ccc(C)cc2)C1	> 200 µM	4.37 µM	–
CCOC(=O)c1c(N)n(-c2ccccc2)c(=S)n(-c2ccccc2)c1=O	> 178 µM	> 178 µM	–
CC1CCCC(C(=O)CC2CC(=O)NC(=O)C2)C1=O (stereo not drawn)	> 200 µM	> 200 µM	–
COC(=O)c1ccccc1SSc1ccccc1C(=O)OC	> 200 µM	18.6 µM	–
Cc1ccc(-c2cc(-c3ccccc3)c(C#N)c(=O)[nH]2)cc1	> 66.1 µM	> 66.1 µM	–
COC1=C(C2=NC(C)(C)CO2)c2ccccc2C(C/C=C/[Si](C)(C)C)C1 (stereo not drawn)	> 26.9 µM	> 26.9 µM	–
O=S(=O)([O-])c1ccc2c(N=Nc3ccc(/C=C\c4ccc(N=Nc5c([O-])ccc6cc(S(=O)(=O)[O-])ccc56)cc4S(=O)(=O)[O-])c(S(=O)(=O)[O-])c3)c([O-])ccc2c1.[Cu+2].[Cu+2].[Na+]	> 19.1 µM	15.8 µM	–
C=CC12CCC(CC1)n1c(=O)n(C)c(=O)n12	> 200 µM	> 200 µM	–
CCOC(=O)C1OC1C1CCCc2ccccc21 (stereo not drawn)	> 200 µM	> 100 µM	–
N#Cc1ccc(C2Oc3ccc(Cl)cc3C=C2[N+](=O)[O-])cc1 (stereo not drawn)	> 200 µM	0.977 µM	–
OC(CCN1CCCCCC1)(Cc1ccccc1)c1ccccc1 (stereo not drawn)	> 200 µM	81.3 µM	–
C[C@]1(O)CC[C@H]2[C@@H]3CC[C@H]4C[C@H](O)[C@@H]5C[C@]4(CO5)[C@H]3CC[C@@]21C	> 110 µM	> 110 µM	–
CCCCCC(O)[C@H]1C(=O)C[C@@H](O[Si](C)(C)C(C)(C)C)[C@@H]1/C=C/CCOCc1ccccc1 (stereo partly drawn)	–	–	inactive
CCOC(CCNCC(OCC)OCC)OCC	> 200 µM	> 200 µM	–
CCOC(=O)c1cc(-c2ccc(OC)c(OC)c2)cn1C	> 200 µM	39.8 µM	–
COc1cc(/C=C/c2ccc(/C=C/c3cc(OC)c(OC)c(OC)c3)cc2)cc(OC)c1OC	–	–	inactive
O=C1CC2(C(=O)O1)C1C(=O)OC(=O)C1C1C=CC=NN12 (stereo not drawn)	> 200 µM	> 200 µM	–
C=C1CCC2(C(C)=O)COC1(C)O2 (stereo not drawn)	–	–	inactive
COc1ccc(/C=C2/C(=O)N(/C=C3\C(=O)Oc4ccccc4C3=O)C(=NC(C)=O)N2C)cc1OC	> 200 µM	126 µM	–
O=C(CCC(=O)Nc1ccc(Cl)cc1)CC(=O)c1ccc(F)cc1	–	–	inactive

SMILES	EC50	IC50	outcome
N#Cc1nc(-c2ccccc2O)oc1N	> 200 µM	> 100 µM	–
Cc1ccc(NC(=O)CC(=O)n2nc(C)c(N=Nc3ccccc3C(=O)O)c2C)cc1	> 427 µM	> 427 µM	–
Cc1ccccc1NC(=O)c1cc(-c2ccc([N+](=O)[O-])cc2)nc(=S)[nH]1	> 490 µM	> 490 µM	–
O=C1NC2(CCCCC2)C2CCCCC=C12 (stereo not drawn)	–	–	inactive
CCOC(=O)NC(=O)c1cn(C2OC(CO)C(O)C2O)c(=O)[nH]c1=O (stereo not drawn)	> 692 µM	> 692 µM	–
CN(C)P1(=O)OCC2CCC[C@@H]2O1 (stereo partly drawn)	–	–	inactive
Clc1cccc(Cl)c1C1SCc2nc3ccccc3n21 (stereo not drawn)	0.224 µM	21.9 µM	–
COc1ccc(NC(=S)/C(=C(/[O-])c2ccc(C)cc2)[n+]2ccccc2)cc1	–	–	inactive
CC1CSS(=O)O1 (stereo not drawn)	> 200 µM	> 200 µM	–
CC(C)C1=CC23CCC4C(C)(C(=O)O)CCCC4(C)C2CC1C1C(=O)N(c2ccc(N4C(=O)C5C6CC7C8(C)CCCC(C)(C(=O)O)C8CCC7(C=C6C(C)C)C5C4=O)cc2)C(=O)C13 (stereo not drawn)	> 55 µM	3.8 µM	–
O=C(CCc1ccccc1)NCCc1ccc(O)c(O)c1	> 200 µM	14.8 µM	–
COC(=O)[C@]1(C)CCC[C@]2(C)[C@H]3CC4OO[C@@]3(CC[C@H]21)[C@H]1O[C@@]41C(C)C	–	–	inactive
Cc1cc2c(C)cc(=O)[nH]c2cc1N	> 200 µM	> 200 µM	–
COC(=O)[C@@H]1C2OC(C)(C)OC2CN1C(=O)OCc1ccccc1 (stereo partly drawn)	–	–	inactive
CCOC(=O)/C(C#N)=C/c1ccccc1OC	> 112 µM	> 112 µM	–
C/C=C1\CNC1C(=O)O (stereo not drawn)	> 200 µM	> 200 µM	–
Cc1cc2c(cc1C)N1C(Cl)=C3CCCCC3=C(C#N)C1N2 (stereo not drawn)	> 20 µM	0.562 µM	–
OCC(O)C(OC1OC(CO)C(O)C(O)C1O)c1nn(-c2ccccc2)c2nc3cc(Cl)ccc3nc12 (stereo not drawn)	–	–	inactive
COC(=O)C1(C)CCc2c(OC)ccc(OC)c2C1=O (stereo not drawn)	120 µM	324 µM	–
CN(C)/C=N/NC(=O)C(O)(c1ccccc1)c1ccccc1	> 200 µM	> 200 µM	–
c1csc(-c2cc(-c3ccsc3)c(-c3cccs3)s2)c1	> 200 µM	107 µM	–
CC1(C)[C@@H]2C[C@H]1C(Cc1ccccc1C[C@H]1c3cc(-c4ccccn4)ncc3[C@H]3C[C@@H]1C3(C)C)c1cc(-c3ccccn3)ncc12 (stereo partly drawn)	> 200 µM	0.316 µM	–

SMILES	EC50	IC50	outcome
N/C(=N\N=C\C1CC2C=CC1C2)NO (stereo not drawn)	–	–	inactive
CCO[Si](C)(OCC)OCC	> 200 µM	> 200 µM	–
Cc1ccc(C2(O)CC(c3ccc([N+](=O)[O-])o3)=NN2C(=O)COc2ccccc2Cl)cc1 (stereo not drawn)	> 1.66 µM	> 1.66 µM	–
O=C(O)CSCCCCSCC(=O)O	> 1050 µM	> 1050 µM	–
C=CCSC[C@H](NC(=O)COc1ccccc1)C(=O)NC(C(=O)OCc1ccc([N+](=O)[O-])cc1)=C(C)C	> 25.7 µM	> 25.7 µM	–
CC1(C)[C@H](C(=O)O)N2C(=O)[C@@H](NS(=O)(=O)c3ccc([N+](=O)[O-])cc3)[C@H]2S1(=O)=O	> 200 µM	195 µM	–
CC(=O)N(CC(=O)Nc1ccc(S(N)(=O)=O)cc1)C(C)C	> 200 µM	> 200 µM	–
CCCN1CN(C(C(=O)N[C@@H]2C(=O)N3C2SC(C)(C)C3C(=O)O)c2ccccc2)CSC1=S (stereo partly drawn)	> 257 µM	148 µM	–
CCOc1ccccc1N=NC1C(=O)N(C(=O)CC(=O)Nc2ccccc2C)N=C1C (stereo not drawn)	> 200 µM	> 200 µM	–
O=C(c1ccccc1)[C@@]12COc3ccccc3[C@@H]1ON=C2c1ccccc1	> 10.7 µM	> 10.7 µM	–
CCOC(=O)CCC(NC(=O)c1ccc(N2CCN(c3c(C)nc(N)nc3N)CC2)cc1)C(=O)OCC (stereo not drawn)	> 0.2 µM	0.0427 µM	–
CC(C)=CCC[C@@H](C)C1=C(O)C(Nc2ccccc2I)=C(C)C(=O)C1=O	> 200 µM	6.76 µM	–
COC(=O)[C@@H]1C=CCN1S(=O)(=O)c1ccc(C)cc1	–	–	inactive
C=CCOC(=O)/C(=C\c1ccc(OC)c(OC)c1)c1ccc(OC)c(OC)c1	> 200 µM	> 200 µM	–
COC1(OC)CC(CO)(CNc2cc(Cl)nc(N)n2)C1	> 200 µM	> 200 µM	–
c1ccc2c(c1)cc1n2CCc2c-1[nH]c1ccccc21	> 200 µM	> 200 µM	–
O=C(/C(=C/c1ccc(O)cc1)c1ccccc1)c1ccccc1	> 120 µM	36.3 µM	–
CCOP(=O)(OCC)C(C)(C)OC(=O)NC#N	> 200 µM	> 200 µM	–
Cn1cc2ccccc2c1-c1nc(F)nc(F)n1	> 15.1 µM	> 15.1 µM	–
COC1C=CC23c4cc5c(cc4C(O)OC2CN(C)C3C1)OCO5 (stereo not drawn)	> 200 µM	0.891 µM	–
Clc1ncc(Cl)c(Cl)n1	–	–	inactive
CC(C)(Oc1ccc(Cl)cc1)C(=O)N(C(=O)N1CCCCC1)c1ccccc1	> 200 µM	13.2 µM	–

SMILES	EC50	IC50	outcome
O=c1[nH][nH]c(=O)c2[nH]cnc12	–	–	inactive
CC1(C)C2CCC1C(=O)[C@@]1(C=CC(=O)CC1)C2 (stereo partly drawn)	> 200 µM	> 200 µM	–
C1=Cc2nc1c(-c1ccncc1)c1ccc([n-]1)c(-c1ccncc1)c1nc(c(-c3ccncc3)c3ccc([n-]3)c2-c2ccncc2)C=C1.[Zn+2]	> 19.1 µM	> 19.1 µM	–
Cn1cnc([N+](=O)[O-])c1S	> 200 µM	67.6 µM	–
CCCCCCCCCCCCCCCCCC[N+](C)(C)Cc1ccc(C[N+](C)(C)CCCCCCCCCCCCCCCCCC)cc1	–	–	inactive
CC[C@]12CN3CCc4c([nH]c5ccccc45)[C@@](C(=O)OC)(c4cc5c(cc4OC)N(C)[C@H]4[C@@](O)(C(=O)OC)[C@H](OC(C)=O)[C@]6(CC)C=CCN7CC[C@]54[C@@H]76)CC(C3)[C@H]1O2 (stereo partly drawn)	> 2 µM	0.141 µM and 0.0447 µM	–
CS(=O)(=O)c1noc(N)n1	> 1510 µM	1260 µM	–
O=C1COc2cc(N3CCN(c4cccc(C(F)(F)F)c4)CC3)ccc2N1	> 200 µM	> 200 µM	–
CC(=O)NC1=NC(=O)/C(=C/c2ccc3c(c2)OCO3)N1C	> 200 µM	> 200 µM	–
CS(=O)(=O)c1cc(=O)[nH]c(=O)[nH]1	77.6 µM	102 µM	–
COc1ccc2nc3ccc(OC)cc3c(S(=O)Cc3ccccc3)c2c1 (stereo not drawn)	> 200 µM	1.23 µM	–
CCc1cccc(CC)c1NC(=O)CC1SC(N)=NC1=O (stereo not drawn)	> 427 µM	> 427 µM	–
S=C(Nc1ccc(Br)cn1)Nc1ccccc1-c1ccccc1	> 2 µM	0.389 µM	–
Cc1[nH]c(=O)nc2[nH][nH]c(=O)c12	–	–	inactive
Cc1ccc(S(=O)(=O)N(/N=C(\N)Oc2ccc(Cl)cc2)C(=N)Oc2ccc(Cl)cc2)cc1	> 100 µM	> 100 µM	–
COc1ccc(C(=O)C(CN2CCOCC2)CN2CCOCC2)cc1	> 200 µM	1.32 µM	–
CN[C@@H](C)[C@@H](NC)c1ccccc1	–	–	inactive
Cc1nc(Nc2ccc([N+](=O)[O-])cc2)sc1C(/C=C/c1ccc(N(C)C)cc1)=N/NC(=O)c1ccccc1	> 13.8 µM	> 13.8 µM	–
NC(CCCCNCc1ccccc1)C(=O)O (stereo not drawn)	> 1050 µM	> 1050 µM	–
COC(=O)C1(CC(=O)OCc2ccccc2)NCCc2c1[nH]c1ccccc21 (stereo not drawn)	> 3.31 µM	> 3.31 µM	–
Cc1cc(O)c2c(c1)C(C1OC(CO)C(O)C(O)C1O)c1cc(O)cc(O)c1C2=O (stereo not drawn)	> 200 µM	> 200 µM	–
Cc1c/c(=N/NC(=O)c2ccncc2)n2nc(N)sc2n1	> 200 µM	> 200 µM	–
